Measured values published in patent US20250108034A1, “EYE DROP FORMULATION” (priority 2021, published 2025).

How the values were obtained:
[1] = Ex vivo corneal drug permeation with Raman mapping; format: in vitro ADME, porcine; settings: after 15 min treatment, compared to 5 min treatment
Description: The ex vivo penetration of ASP was examined with HPLC and Raman microscopy. Freshly donated porcine eyes obtained from the slaughterhouse was placed on a sterile cotton wool bed moistened with physiological saline solution and kept in refrigerator box during the transportation. The porcine eye was placed into a Teflon cell, where the cornea was uncovered and surrounded by a Teflon ring to prevent the flow of eye drops. The cornea was instilled with 1000 μL of physiological saline solution and 50 μL of ASP-CD formulation was added to the covering saline solution, which can imitate physiological dilution caused by tear fluid and incubated at 35° C. […] ASP content in the residual solution, aqueous humour and cornea was determined with HPLC. The corneal retention of AS was calculated according to Eq. 2., whereas apparent permeability by using the following equation: […]
Raman mapping was carried out to examine the distribution of selected ASP-CD formulation and initial ASP on porcine cornea. […] For localization of permeated formulation, the Raman spectra of ASP was set as profile, whose frequency of occurrence was determined by measuring the relative intensity of ASP in the Raman maps with ImageJ 1.4 software (National Institutes of Health, Bethesda, MD, USA).

[2] = Stability study (shelf-life) of ASP and ASP-CD complexes in physiological saline; format: physicochemical; settings: for Shelf-life (t90%): physiological saline
Description: The determination of ASP concentration was performed with HPLC using an Agilent 1260 (Agilent Technologies, Santa Clara, USA). As stationary phase a Zorbax Eclipse© C18 column 100×4.6 mm, 5 μm (Phenomenex, Torrance, CA, USA) was applied. Isocratic elution with purified water and methanol 10:90 (v/v) was applied for 6 min at a flow rate of 1.0 mL/min at 25° C. 10 μL of the samples were injected to determine the ASP concentration. The chromatograms were detected at 255 nm using UV-VIS diode array detector. Data were evaluated using ChemStation B.04.03. Software (Agilent Technologies, Santa Clara, USA). […] Chemical stability of ASP and ASP-CD complexes was investigated in physiological saline at room condition (25±0.5° C.) and cold place condition (4±0.5° C.) for 5 days. Actual drug content was quantified using HPLC in predetermined time intervals to predict shelf-life of formulations.

[3] = system: conjunctival and corneal surface of rabbit eyes; settings: in vivo
[4] = system: conjunctival and corneal surface of rabbit eyes; experiment: Ocular administration of cyclodextrins to rabbit eyes (irritation/tolerability); settings: concentrations of 5 and 12.5%

In the case of CCCCCCCCCCCCCCCC(=O)OC[C@H](O)[C@H]1OC(=O)C(O)=C1O [ASP, L-Ascorbic acid 6-palmitate], the “Relative intensity of ASP in Raman maps” value [1] is reported as “increased”, the “Shelf-life (t90%)” value ([2]; stored at 4° C.) is reported as 4.58 h and the “Shelf-life (t90%)” value ([2]; stored at 25° C.) is reported as 8.37 h.
For CC(O)COC[C@H]1O[C@@H]2O[C@H]3[C@H](O)[C@@H](O)[C@@H](O[C@H]4[C@H](O)[C@@H](O)[C@@H](O[C@H]5[C@H](O)[C@@H](O)[C@@H](O[C@H]6[C@H](O)[C@@H](O)[C@@H](O[C@H]7[C@H](O)[C@@H](O)[C@@H](O[C@H]8[C@H](O)[C@@H](O)[C@@H](O[C@H]1[C@H](O)[C@H]2O)O[C@@H]8COCC(C)O)O[C@@H]7COCC(C)O)O[C@@H]6COCC(C)O)O[C@@H]5COCC(C)O)O[C@@H]4COCC(C)O)O[C@@H]3COCC(C)O (stereo partly drawn) [HPBCD, (2-Hydroxypropyl)-beta-cyclodextrin], the Ocular tolerability [3] was “well tolerated”.
For benzalkonium chloride [BC], the “Effect of BC on the shelf-life” value ([2]; 0.004 and 0.008% BC) was “no significant effect”.
In the case of “randomly substituted methyl-beta-cyclodextrin [RAMEB]”, the Ocular irritation [4] is reported as “irritating”.
